Literature values, collected in PMC5758054 (Journal of natural products, 2017).

Tested on: murine colorectal cancer lung metasteses
Details: ref [36],[37]

Structure (SMILES): N#C[C@@H]1CCCN1C(=O)CNC12CC3CC(CC(O)(C3)C1)C2 [Vildagliptin]
- in vivo tumor suppressor activity (in words): has in vivo tumor suppressor activity
